What was measured:
[1] = tested on: HIV-1RF-infected H9 cells; test: Inhibition of HIV-induced syncytium formation (uninfected H9 cells with HIV-1RF-infected H9 cells); type: cell-based; conditions: for IC100 of syncytium formation: H9 + HIV-1RF-infected H9 cells, 6 to 15 hours at 37° C.
Procedure: The purified enantiomers were taken up in DMSO at a concentration of 10 mg/mL. Dilutions were made in RPMI 1640 medium containing 10% fetal calf serum and 10 mM HEPES (cRPMI). H9 cells (ATCC, Rockville, Md.) infected with HIV-1RF (NIH AIDS Repository, Rockville, Md.) and uninfected H9 cells were washed with cRPMI and resuspended in cRPMI at a density of 4×10^6 per mL. Uninfected cells (50 μL) were mixed with serial dilutions of the compounds (100 μL) and incubated at 37° C. for 30 min before adding and mixing 50 μL of infected H9 cells. The plates were incubated at 37° C. for 6 to 15 hours before scoring syncytium formation.
For all the curves, the effect of ajoene enantiomers and enantiomer mixtures on the fusion of cultured, intact H9 cells with HIV-1RF-infected H9 cells is disclosed. The vertical graph axis expresses the maximum amount of syncytia formed in the absence of the compounds (100 percent), while the points on the curves represent percentages of such an amount of syncytia formed in the presence of varying concentrations of the compounds and compound mixtures (micromoles per liter).

[2] = tested on: U937 cells infected with HIV-1 RT; test: Inhibition of syncytium formation (MT2 cells with HIV-1 RT-infected U937 cells); type: cell-based; conditions: MT2 + HIV-1 RT-infected U937 cells, 13 hours
VLA-4 = biological target: T1, VLA-4 (Homo sapiens, UniProt P05556+P13612); test: Inhibition of VLA-4-mediated adhesion of HRP-labeled PMI cells to VCAM-1-coated substrata; type: cell-based
T1 construct: VLA-4-mediated adhesion of enzyme-labeled PM1 cells to VCAM-1-coated artificial substrata; host or cells: PM1 (printed 'PMI') cells
Procedure: In addition, the present invention provides methods whereby the integrin-modulating activity of DDCs may be assessed. One such method involves VLA-4-mediated adhesion of enzyme-labeled PM1 cells to VCAM-1-coated artificial substrata. Specifically, the cells are exposed to isolated DDC enantiomers (or the vehicle thereof) and allowed to adhere or not adhere to immobilized VCAM-1. Thereafter, the adherent cells are lysed and, following addition of the substrate of the enzyme and incubation, the activity of the enzyme is measured spectrophotometrically. The value of this parameter, characterizing the number of the adherent cells, is inversely proportional to integrin-modulating activity of the compound. Another such method is based on the inhibition of HIV-mediated syncytium formation, a phenomenon known to depend on integrin-mediated functions. Yet another method is based on the inhibition of cell-to-cell HIV transmission, a process also dependent on integrin-mediated functions. Modulating activity of integrin-mediated functions by the enantiomers was compared in a well-defined system of inhibition of VLA-4-mediated adhesion of enzyme-labeled PMI cells (NIH AIDS Repository, Rockville, Md.) to VCAM-1-coated artificial substrata. […] The reaction was stopped with 0.5 M H2SO4, and the optical density of the wells was read at 450 nm. […]

[3] = biological target: platelet integrin, GP IIb/IIIa (Homo sapiens, UniProt P05106+P08514); conditions: allosteric inactivation of GP IIb/IIIa; cited from earlier work
[4] = tested on: adhesion-dependent processes; conditions: mixtures of E- and Z-isomers; cited from earlier work

T1 sequence (P13612 34-1032): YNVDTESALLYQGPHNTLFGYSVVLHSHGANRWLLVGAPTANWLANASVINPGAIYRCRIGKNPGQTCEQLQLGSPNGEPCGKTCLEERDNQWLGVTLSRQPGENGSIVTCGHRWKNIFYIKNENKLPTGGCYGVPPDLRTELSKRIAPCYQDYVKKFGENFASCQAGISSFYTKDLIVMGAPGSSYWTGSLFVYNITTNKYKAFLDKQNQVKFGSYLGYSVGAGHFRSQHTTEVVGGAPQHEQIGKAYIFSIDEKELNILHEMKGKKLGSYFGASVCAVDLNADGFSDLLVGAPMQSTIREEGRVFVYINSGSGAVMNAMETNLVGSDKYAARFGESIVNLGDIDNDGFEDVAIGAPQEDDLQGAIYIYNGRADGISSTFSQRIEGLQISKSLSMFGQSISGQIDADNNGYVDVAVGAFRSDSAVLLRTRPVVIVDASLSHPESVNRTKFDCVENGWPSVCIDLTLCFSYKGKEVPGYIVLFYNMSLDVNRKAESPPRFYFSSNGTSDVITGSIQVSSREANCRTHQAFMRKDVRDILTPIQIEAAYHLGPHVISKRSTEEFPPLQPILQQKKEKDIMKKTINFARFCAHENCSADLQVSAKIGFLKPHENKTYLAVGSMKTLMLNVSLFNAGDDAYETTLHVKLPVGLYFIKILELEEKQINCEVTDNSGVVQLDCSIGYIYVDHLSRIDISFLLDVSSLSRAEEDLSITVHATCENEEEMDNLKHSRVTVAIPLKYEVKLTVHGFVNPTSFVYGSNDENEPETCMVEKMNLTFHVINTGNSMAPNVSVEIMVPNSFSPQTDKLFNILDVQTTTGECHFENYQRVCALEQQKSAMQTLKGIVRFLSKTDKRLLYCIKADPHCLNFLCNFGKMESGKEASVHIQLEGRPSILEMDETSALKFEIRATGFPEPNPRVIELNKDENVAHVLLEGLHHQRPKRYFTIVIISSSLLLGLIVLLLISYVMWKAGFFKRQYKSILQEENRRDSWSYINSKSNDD
T1 sequence (P05556 21-798): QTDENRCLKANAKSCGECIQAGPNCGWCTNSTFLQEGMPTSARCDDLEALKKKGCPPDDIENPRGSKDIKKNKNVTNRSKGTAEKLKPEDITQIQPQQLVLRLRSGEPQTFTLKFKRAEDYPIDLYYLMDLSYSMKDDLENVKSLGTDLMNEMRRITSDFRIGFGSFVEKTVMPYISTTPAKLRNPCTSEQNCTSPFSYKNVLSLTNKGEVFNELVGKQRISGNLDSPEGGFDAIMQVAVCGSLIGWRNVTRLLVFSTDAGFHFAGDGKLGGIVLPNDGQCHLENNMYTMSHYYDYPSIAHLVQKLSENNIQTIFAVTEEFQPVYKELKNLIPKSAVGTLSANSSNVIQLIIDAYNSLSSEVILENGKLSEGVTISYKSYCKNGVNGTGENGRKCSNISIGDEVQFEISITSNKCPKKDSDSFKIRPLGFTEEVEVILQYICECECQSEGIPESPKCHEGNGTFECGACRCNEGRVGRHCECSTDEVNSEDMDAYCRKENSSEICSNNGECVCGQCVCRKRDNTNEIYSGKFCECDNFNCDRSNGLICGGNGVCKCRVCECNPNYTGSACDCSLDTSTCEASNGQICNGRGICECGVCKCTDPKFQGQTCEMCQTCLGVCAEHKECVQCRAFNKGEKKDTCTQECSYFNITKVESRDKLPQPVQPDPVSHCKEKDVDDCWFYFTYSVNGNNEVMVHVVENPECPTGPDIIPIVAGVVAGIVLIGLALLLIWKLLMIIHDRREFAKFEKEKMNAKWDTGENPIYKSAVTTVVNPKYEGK
Chain of platelet integrin, GP IIb/IIIa (P08514 32-887 limits assumed): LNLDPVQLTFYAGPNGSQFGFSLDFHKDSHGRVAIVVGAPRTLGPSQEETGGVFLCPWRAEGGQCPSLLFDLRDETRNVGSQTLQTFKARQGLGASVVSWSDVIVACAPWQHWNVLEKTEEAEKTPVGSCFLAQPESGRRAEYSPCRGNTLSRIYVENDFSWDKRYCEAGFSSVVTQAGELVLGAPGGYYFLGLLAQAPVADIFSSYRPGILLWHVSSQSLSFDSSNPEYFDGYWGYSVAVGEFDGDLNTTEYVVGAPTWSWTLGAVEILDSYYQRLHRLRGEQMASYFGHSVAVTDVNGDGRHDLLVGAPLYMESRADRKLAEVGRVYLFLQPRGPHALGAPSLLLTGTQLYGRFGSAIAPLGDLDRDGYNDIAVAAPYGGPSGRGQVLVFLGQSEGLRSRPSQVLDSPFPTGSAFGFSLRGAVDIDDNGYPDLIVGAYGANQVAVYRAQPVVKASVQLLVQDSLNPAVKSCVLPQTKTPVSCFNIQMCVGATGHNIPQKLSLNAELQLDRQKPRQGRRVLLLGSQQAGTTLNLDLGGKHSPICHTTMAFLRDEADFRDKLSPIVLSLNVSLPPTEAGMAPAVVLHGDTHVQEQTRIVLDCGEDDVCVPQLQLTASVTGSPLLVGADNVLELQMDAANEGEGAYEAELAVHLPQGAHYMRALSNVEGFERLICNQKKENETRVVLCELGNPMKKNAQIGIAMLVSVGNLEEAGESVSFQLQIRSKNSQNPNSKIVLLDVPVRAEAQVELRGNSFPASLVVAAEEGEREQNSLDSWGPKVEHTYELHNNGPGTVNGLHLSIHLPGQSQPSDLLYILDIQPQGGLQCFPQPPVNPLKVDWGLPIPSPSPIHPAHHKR
Chain of platelet integrin, GP IIb/IIIa (P08514 891-1039 limits assumed): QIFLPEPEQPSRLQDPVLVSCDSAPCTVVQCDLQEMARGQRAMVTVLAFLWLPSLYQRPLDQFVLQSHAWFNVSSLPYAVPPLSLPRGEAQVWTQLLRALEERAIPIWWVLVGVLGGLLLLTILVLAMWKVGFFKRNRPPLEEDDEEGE
Chain of platelet integrin, GP IIb/IIIa (P05106 27-788): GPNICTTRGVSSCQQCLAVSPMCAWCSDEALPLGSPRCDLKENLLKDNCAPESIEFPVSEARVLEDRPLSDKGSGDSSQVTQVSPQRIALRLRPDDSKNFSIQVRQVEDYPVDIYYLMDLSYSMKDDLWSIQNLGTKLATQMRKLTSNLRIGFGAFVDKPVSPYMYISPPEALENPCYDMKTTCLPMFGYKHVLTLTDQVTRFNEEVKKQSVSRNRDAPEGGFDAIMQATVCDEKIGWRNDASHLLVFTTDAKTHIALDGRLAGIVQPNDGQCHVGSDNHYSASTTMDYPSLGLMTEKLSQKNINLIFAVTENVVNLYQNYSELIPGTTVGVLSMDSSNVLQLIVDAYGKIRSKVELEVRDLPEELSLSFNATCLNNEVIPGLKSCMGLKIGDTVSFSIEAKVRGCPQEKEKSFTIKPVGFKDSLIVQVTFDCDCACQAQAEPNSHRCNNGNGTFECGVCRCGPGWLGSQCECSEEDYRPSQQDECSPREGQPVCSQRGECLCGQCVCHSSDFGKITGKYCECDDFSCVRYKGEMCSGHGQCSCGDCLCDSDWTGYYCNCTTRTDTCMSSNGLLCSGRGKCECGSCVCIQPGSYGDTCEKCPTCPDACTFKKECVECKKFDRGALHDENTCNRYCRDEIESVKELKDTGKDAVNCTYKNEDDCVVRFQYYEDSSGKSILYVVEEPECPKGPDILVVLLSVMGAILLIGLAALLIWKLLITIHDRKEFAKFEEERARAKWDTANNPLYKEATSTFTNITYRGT

C=CCSS/C=C/C[S+]([O-])CC=C (racemic) [racemic (E)-ajoene, reference compound]
IC100 of syncytium formation [1]: 50 micromoles per liter

C=CCSS/C=C\C[S+]([O-])CC=C (stereo not drawn) [(Z)-(+) counterpart]
IC100 of syncytium formation [1]: 50 micromoles per liter

C=CCSS/C=C\C[S+]([O-])CC=C (stereo not drawn) [(Z)-(−)-enantiomer, (Z)-(−)-4,5,9-trithiadodeca-1,6,11-triene-9-oxide]
syncytium formation inhibition, result compared with the H9 system [2]: A similar result was obtained | IC100 of syncytium formation [1]: 12.5 micromoles per liter | activity as an integrin modulator relative to other enantiomers, racemic E-ajoene or the unseparated 3:1 mixture ([1]; summary statement in the description, covers Examples 2 and 3): at least four times more active | activity relative to (Z)-(+) counterpart, racemic (E)-ajoene or the unseparated 3:1 mixture ([1]; syncytium formation, FIG. 1 curves): at least four times more active | adhesion-inhibiting activity, fold higher than any other enantiomer of the original 3:1 mixture (VLA-4; PMI cells on VCAM-1, optical density read at 450 nm): 4 fold | activity compared with the parent racemates (E-, Z-ajoenes and mixtures) (VLA-4; conclusion from Examples 2 and 3 taken together): significantly higher

C=CCSS/C=C/C[S+]([O-])CC=C (stereo not shown) [ajoene, 4,5,9-trithiadodeca-1,6,11-triene-9-oxide]
effect on platelet aggregation [3]: inhibit platelet aggregation | inhibition of adhesion-dependent processes [4]: potent inhibitor

Source: US20100099917A1, “Integrin modulators and methods for their use” (Billings Pharmaceuticals, Inc., priority 2004, published 2010)
